The target in one data set is T1, Toll-like receptor 7 (Homo sapiens, UniProt Q9NYK1).
T1 sequence (Q9NYK1 whole entry): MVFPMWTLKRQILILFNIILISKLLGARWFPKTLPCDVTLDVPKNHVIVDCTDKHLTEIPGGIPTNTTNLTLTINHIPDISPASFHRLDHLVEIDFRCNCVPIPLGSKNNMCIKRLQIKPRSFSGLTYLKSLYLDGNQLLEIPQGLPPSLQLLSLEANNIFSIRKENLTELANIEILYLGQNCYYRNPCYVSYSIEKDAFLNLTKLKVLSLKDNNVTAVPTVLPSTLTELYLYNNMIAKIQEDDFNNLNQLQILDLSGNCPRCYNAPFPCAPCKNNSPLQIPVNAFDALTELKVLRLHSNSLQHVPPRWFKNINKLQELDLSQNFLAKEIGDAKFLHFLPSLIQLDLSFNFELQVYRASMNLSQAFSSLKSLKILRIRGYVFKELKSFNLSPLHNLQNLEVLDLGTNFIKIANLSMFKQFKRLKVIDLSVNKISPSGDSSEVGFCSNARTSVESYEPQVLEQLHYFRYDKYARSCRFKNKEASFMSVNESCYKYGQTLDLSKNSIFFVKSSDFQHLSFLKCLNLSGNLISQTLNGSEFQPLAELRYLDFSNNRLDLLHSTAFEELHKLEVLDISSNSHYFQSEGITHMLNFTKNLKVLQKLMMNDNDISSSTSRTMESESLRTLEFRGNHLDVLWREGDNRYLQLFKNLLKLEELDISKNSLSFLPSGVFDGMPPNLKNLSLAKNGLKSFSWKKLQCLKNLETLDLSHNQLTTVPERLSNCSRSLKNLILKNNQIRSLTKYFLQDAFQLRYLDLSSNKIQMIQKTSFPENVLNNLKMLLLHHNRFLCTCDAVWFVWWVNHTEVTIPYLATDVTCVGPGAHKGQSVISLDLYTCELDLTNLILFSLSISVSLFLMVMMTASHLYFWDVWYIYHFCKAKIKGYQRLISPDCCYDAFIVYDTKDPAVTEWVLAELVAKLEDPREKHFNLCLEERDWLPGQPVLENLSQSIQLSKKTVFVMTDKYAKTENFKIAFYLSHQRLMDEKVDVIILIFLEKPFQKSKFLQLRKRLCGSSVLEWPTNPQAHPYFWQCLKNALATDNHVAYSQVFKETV
The data set is described as follows: Antagonist activity at human TLR7 expressed in HEK-blue-HTLR7 cells assessed as inhibition of CL264-induced NFkappaB activation measured after overnight incubation by SEAP-based spectrophotometry assay.

Data set [1] is described as follows: Apparent permeability across apical to basolateral side in human Caco2 cells at 10 uM measured after 10 mins by LC-MS/MS analysis. As to conditions: Caco-2. On the technique in general: Caco-2 monolayers are a common model of the intestinal barrier.
The nature of data set [2]: Apparent permeability across basolateral to apical side in human Caco2 cells at 10 uM measured after 10 mins by LC-MS/MS analysis. As to conditions: Caco-2.
Data set [3] in a line: Efflux ratio of apparent permeability across apical to basolateral over basolateral to apical side in human Caco2 cells measured after 10 mins by LC-MS/MS analysis. Conditions: Caco-2.
A short description of data set [4]: Stability in human plasma measured after 2 hrs by LC-MS/MS analysis.
The nature of data set [5]: Stability in mouse plasma measured after 2 hrs by LC-MS/MS analysis.
Data set [6] can be described thus: Metabolic stability in human liver microsomes assessed as half life incubated for 60 mins by LC-MS/MS analysis. A general note: Liver microsomes are vesicles of endoplasmic reticulum, rich in cytochrome P450 enzymes.
A short description of data set [7]: Metabolic stability in human liver microsomes assessed as compound remaining incubated for 60 mins by LC-MS/MS analysis.
Data set [8] in a line: Metabolic stability in human liver microsomes assessed as intrinsic clearance incubated for 60 mins by LC-MS/MS analysis.
Data set [9] is described as follows: Metabolic stability in mouse liver microsomes assessed as intrinsic clearance incubated for 60 mins by LC-MS/MS analysis.
Data set [10] is described as follows: metabolic stability in human liver microsomes assessed as hepatic extraction ratio incubated for 60 mins by LC-MS/MS analysis.
Data set [11] can be described thus: Metabolic stability in mouse liver microsomes assessed as hepatic extraction ratio incubated for 60 mins by LC-MS/MS analysis.
A further data set addresses T2, Toll-like receptor 8 (Homo sapiens, UniProt Q9NR97).
T2 sequence (Q9NR97 whole entry): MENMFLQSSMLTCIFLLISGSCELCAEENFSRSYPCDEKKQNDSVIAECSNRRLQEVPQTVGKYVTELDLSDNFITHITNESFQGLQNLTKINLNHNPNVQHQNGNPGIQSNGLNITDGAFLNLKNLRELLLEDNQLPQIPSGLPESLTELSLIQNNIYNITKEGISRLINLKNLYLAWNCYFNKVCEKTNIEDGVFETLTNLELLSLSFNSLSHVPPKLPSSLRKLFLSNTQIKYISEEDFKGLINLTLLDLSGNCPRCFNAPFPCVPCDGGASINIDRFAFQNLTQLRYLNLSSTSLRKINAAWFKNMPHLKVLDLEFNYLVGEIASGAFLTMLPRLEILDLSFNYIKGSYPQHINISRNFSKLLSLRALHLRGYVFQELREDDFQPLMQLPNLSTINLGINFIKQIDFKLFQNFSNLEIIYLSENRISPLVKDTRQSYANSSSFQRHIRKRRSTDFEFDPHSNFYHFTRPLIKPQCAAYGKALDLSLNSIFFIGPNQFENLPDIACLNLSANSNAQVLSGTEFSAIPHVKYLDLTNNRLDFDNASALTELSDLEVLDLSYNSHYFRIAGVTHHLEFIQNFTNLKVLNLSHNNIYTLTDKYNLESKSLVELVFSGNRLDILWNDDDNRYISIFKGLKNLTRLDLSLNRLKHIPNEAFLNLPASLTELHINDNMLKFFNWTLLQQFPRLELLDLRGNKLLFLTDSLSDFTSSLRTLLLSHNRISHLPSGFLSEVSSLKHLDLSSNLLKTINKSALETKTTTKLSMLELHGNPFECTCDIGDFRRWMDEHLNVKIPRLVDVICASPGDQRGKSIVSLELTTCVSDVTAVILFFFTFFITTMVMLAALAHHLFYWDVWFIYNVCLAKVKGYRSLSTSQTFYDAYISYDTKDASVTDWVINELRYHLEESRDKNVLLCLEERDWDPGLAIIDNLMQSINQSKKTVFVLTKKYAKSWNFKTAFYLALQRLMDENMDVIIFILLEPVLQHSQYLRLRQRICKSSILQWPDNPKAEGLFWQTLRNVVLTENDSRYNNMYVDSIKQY
The experiment in a line: Antagonist activity at human TLR8 expressed in […] cells assessed as inhibition of CL075-induced NFkappaB activation measured after overnight incubation by SEAP-based spectrophotometry assay. The format is cell-based, HEK293.

A further data set is described as follows: physchem. Conditions: buffer, pH 7.4.
For the next data set, the target named is T3, Toll-like receptor 9 (Homo sapiens, UniProt Q9NR96).
T3 sequence (Q9NR96 whole entry): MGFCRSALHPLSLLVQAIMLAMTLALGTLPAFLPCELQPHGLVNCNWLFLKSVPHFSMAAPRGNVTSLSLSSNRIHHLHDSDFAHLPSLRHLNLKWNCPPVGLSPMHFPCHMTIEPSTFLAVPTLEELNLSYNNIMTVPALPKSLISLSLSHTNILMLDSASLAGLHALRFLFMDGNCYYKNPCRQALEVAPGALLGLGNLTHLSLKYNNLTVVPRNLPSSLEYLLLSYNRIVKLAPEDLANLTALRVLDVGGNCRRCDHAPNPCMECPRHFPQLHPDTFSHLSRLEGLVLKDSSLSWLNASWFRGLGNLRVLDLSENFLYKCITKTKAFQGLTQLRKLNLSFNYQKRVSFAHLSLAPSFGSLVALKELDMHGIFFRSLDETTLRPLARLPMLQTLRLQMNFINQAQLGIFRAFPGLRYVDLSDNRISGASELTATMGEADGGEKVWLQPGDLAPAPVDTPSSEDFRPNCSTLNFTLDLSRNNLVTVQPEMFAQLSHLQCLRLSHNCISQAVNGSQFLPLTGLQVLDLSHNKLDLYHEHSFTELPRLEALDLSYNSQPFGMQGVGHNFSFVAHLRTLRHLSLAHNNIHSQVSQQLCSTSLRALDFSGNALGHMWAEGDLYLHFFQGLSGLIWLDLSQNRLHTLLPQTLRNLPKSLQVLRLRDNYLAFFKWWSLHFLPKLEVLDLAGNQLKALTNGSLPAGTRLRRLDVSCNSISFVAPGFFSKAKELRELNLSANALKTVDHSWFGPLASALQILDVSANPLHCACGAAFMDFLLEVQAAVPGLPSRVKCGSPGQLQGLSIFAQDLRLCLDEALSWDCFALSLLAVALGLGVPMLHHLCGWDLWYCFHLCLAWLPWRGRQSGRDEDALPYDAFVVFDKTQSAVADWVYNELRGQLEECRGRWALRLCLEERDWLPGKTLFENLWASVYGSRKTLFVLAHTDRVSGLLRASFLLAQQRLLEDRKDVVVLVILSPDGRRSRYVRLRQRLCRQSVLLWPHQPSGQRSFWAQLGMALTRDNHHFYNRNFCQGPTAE
The data set is described as follows: Antagonist activity at human TLR9 expressed in […] cells assessed as inhibition of CpGB-induced NFkappaB activation measured after overnight incubation by SEAP-based spectrophotometry assay. The format is cell-based, HEK293.

Data on two compounds can be found in ChEMBL document CHEMBL5036327, “Systematic Optimization of Potent and Orally Bioavailable Purine Scaffold as a Dual Inhibitor of Toll-Like Receptors 7 and 9” (J Med Chem, 2021).

In brackets after ≈: the same amount, converted by molar mass. Some results are limits rather than exact numbers.

As usually defined, the IC50 is the concentration that gives 50% inhibition. Usually Papp A→B stands for the apparent permeability from the apical to the basolateral side of a cell layer. In general, Papp B→A refers to the apparent permeability from the basolateral to the apical side of a cell layer. In general, efflux ratio refers to the permeability from basolateral to apical divided by that in the opposite direction, in the common usage. For orientation: share remaining means the share of the starting amount still present when the sample was taken. A word on the half-life: it is the time needed for the level to fall by half in the phase considered. A word on the microsomal CLint: it is the capacity of the preparation to metabolise the compound, expressed as a volume cleared per time. The solubility is the concentration that dissolves in the medium under given conditions.

Description for physchem: Aqueous solubility of compound at pH 7.4 measured after 18 hrs by UV-spectrometry

With `Fc1ccc(CNc2nc(N3CCN(C4CCCC4)CC3)c3ncn(CCCN4CCCC4)c3n2)cc1`, the concentration for half-maximal inhibition (IC50) was 13.6 µM on Toll-like receptor 7 and more than 30 µM at Toll-like receptor 8. In addition, the Papp A→B at 10 min, 10 µM in data set [1] is 32.7 ×10⁻⁶ cm/s. In data set [2], the Papp B→A at 10 min, 10 µM was found to be 62 ×10⁻⁶ cm/s. Also, in data set [3], the efflux ratio at 10 min turned out to be 1.9. The results for the amount remaining at 2 h in data set [4] and in data set [5] were 75% and 20%, respectively. For the same compound, in data set [6], the half-life at 1 h was 0.298 h. In addition, the fraction remaining at 1 h in data set [7] is 2.9%. The microsomal CLint at 1 h in [8] came to 38.8 µL/min/mg; in [9], 23.1 µL/min/mg. Also, the hepatic extraction ratio at 1 h in data set [10] is 0.642; in [11], 0.385. The same compound had a solubility at 18 h in “physchem” of 28 µg/mL (≈ 55.3 µM).

As for `CCN1CCN(c2nc(NCc3ccc(CN(C)C)cc3)nc3c2ncn3CCCN2CCCC2)CC1`, the figures for the IC50 on Toll-like receptor 9 and on Toll-like receptor 7 were 0.09 µM and 17.8 µM, respectively. The Papp A→B at 10 min, 10 µM in data set [1] was found to be 92.2 ×10⁻⁶ cm/s. In [2], the Papp B→A at 10 min, 10 µM is 61.2 ×10⁻⁶ cm/s. In addition, the efflux ratio at 10 min in data set [3] came out at 0.7. Further, the amount remaining at 2 h in [4] was 58%; in [5], 22%. Further, in data set [6], the half-life at 1 h is 1.87 h. Further, the amount remaining at 1 h in data set [7] came to 50.7%. For the same compound, the intrinsic clearance (microsomal CLint) at 1 h amounted to 7.1 µL/min/mg in data set [8] and 4.74 µL/min/mg in data set [9]. The hepatic extraction ratio at 1 h in data set [10] is 0.241; in [11], 0.114. The compound also registered a solubility at 18 h in “physchem” of 136 µg/mL (≈ 269 µM).
